# Reference: US20240383904A1, “HETEROCYCLIC COMPOUNDS” (Hoffmann-La Roche Inc., priority 2021, published 2024)
# pIC50: −log10 of the molar value.
# Target: T1, MAGL (Homo sapiens, UniProt Q99685)
# T1 sequence (Q99685 1-303): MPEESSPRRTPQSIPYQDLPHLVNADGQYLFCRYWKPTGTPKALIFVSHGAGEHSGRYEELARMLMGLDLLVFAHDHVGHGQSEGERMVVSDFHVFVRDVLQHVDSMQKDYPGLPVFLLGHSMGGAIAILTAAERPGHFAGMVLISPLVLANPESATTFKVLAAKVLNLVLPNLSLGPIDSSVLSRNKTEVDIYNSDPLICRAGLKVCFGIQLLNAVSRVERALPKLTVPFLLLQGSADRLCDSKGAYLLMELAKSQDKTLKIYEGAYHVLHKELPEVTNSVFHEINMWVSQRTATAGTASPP
# Assay: 2-AG assay: MAGL inhibitory activity by hydrolysis of 2-arachidonoylglycerol to arachidonic acid, followed by mass spectrometry
# Format: biochemical
# Conditions: 15 min preincubation, 30 min reaction at RT, 8 μM 2-arachidonoylglycerol
row,SMILES,pIC50
1,"O=C1COCC2(CN(C(=O)N3CC4(CC(Cc5cncc(S(=O)(=O)C(F)(F)F)c5)C4)C3)C2)N1 [Example 253, 2-[6-[[5-(trifluoromethylsulfonyl)-3-pyridyl]methyl]-2-azaspiro[3.3]heptane-2-carbonyl]-8-oxa-2,5-diazaspiro[3.5]nonan-6-one]",7.47
2,"O=C1CCC2(CN(C(=O)N3CC4(CCC(S(=O)(=O)c5cccc(C(F)(F)F)c5)CC4)C3)C2)N1 [Example 282, 2-[7-[3-(trifluoromethyl)phenyl]sulfonyl-2-azaspiro[3.5]nonane-2-carbonyl]-2,5-diazaspiro[3.4]octan-6-one]",7.43
3,"CC1(NS(=O)(=O)N2CC3(CN(C(=O)N4CC5(COC(=O)N5)C4)C3)C2)CC1 [Example 193, N-(1-methylcyclopropyl)-6-(6-oxo-7-oxa-2,5-diazaspiro[3.4]octane-2-carbonyl)-2,6-diazaspiro[3.3]heptane-2-sulfonamide]",7.19
4,"CS(=O)(=O)c1ccc(CN2CCC3(CC2)CN(C(=O)N2CC4(CCC(=O)N4)C2)C3)cc1 [Example 160, 2-[7-(4-mesylbenzyl)-2,7-diazaspiro[3.5]nonane-2-carbonyl]-2,5-diazaspiro[3.4]octan-6-one]",6.55
5,"CS(=O)(=O)c1cccc(CC2CC3(C2)CN(C(=O)N2CC4(CCC(=O)N4)C2)C3)c1 [Example 9, 2-[6-(3-mesylbenzyl)-2-azaspiro[3.3]heptane-2-carbonyl]-2,5-diazaspiro[3.4]octan-6-one]",7.69
6,"CP(C)(=O)c1cc(F)cc(CC2CC3(C2)CN(C(=O)N2CC4(CCC(=O)N4)C2)C3)c1 [Example 339, 2-[6-(3-dimethylphosphoryl-5-fluoro-benzyl)-2-azaspiro[3.3]heptane-2-carbonyl]-2,5-diazaspiro[3.4]octan-6-one]",6.67
7,"N=S(=O)(c1cccc(OC(F)(F)F)c1)C1CC2(C1)CN(C(=O)N1CC3(CCC(=O)N3)C1)C2 (stereo not shown) [Example 297, 2-[6-[[3-(trifluoromethoxy)phenyl]sulfonimidoyl]-2-azaspiro[3.3]heptane-2-carbonyl]-2,5-diazaspiro[3.4]octan-6-one]",7.12
8,"O=C1CCC2(CN(C(=O)N3CC4(CC(Oc5ccc(C(F)(F)F)nn5)C4)C3)C2)N1 [Example 75, 2-[6-[6-(trifluoromethyl)pyridazin-3-yl]oxy-2-azaspiro[3.3]heptane-2-carbonyl]-2,5-diazaspiro[3.4]octan-6-one]",6.57
9,"Cn1nc(C(F)(F)F)cc1CN1CCC2(CC1)CN(C(=O)N1CC3(CCC(=O)N3)C1)C2 [Example 337, 2-[7-[[2-methyl-5-(trifluoromethyl)pyrazol-3-yl]methyl]-2,7-diazaspiro[3.5]nonane-2-carbonyl]-2,5-diazaspiro[3.4]octan-6-one]",6.80
10,"CNC(=O)c1ccccc1CN1CC2(C1)CN(C(=O)N1CC3(COC(=O)N3)C1)C2 [Example 201, N-methyl-2-[[2-(6-oxo-7-oxa-2,5-diazaspiro[3.4]octane-2-carbonyl)-2,6-diazaspiro[3.3]heptan-6-yl]methyl]benzamide]",6.78
11,"O=C1CCCC2(CN(C(=O)N3CC4(CN(Cc5ccc(S(=O)(=O)C(F)(F)F)cc5F)C4)C3)C2)N1 [Example 267, 2-[6-[[2-fluoro-4-(trifluoromethylsulfonyl)phenyl]methyl]-2,6-diazaspiro[3.3]heptane-2-carbonyl]-2,5-diazaspiro[3.5]nonan-6-one]",5.91
12,"O=C1NC2(CCO1)CN(C(=O)N1CC3(CC(NS(=O)(=O)c4cccc(C(F)(F)F)c4)C3)C1)C2 [Example 52, N-[2-(6-keto-7-oxa-2,5-diazaspiro[3.5]nonane-2-carbonyl)-2-azaspiro[3.3]heptan-6-yl]-3-(trifluoromethyl)benzene-sulfonamide]",6.13
13,"O=C1NCC2(CN(C(=O)N3CC4(CCC(OCC5(C(F)(F)F)CC5)CC4)C3)C2)N1 [Example 127, 2-[7-[[1-(trifluoromethyl)cyclopro-pyl]methoxy]-2-azaspiro[3.5]nonane-2-carbonyl]-2,5,7-triazaspiro[3.4]octan-6-one]",7.51
14,"O=C1COCC2(CN(C(=O)N3CC4(CCN(S(=O)(=O)c5ccc(C(F)(F)F)cc5F)CC4)C3)C2)N1 [Example 141, 2-[7-[2-fluoro-4-(trifluoromethyl)phenyl]sulfonyl-2,7-diazaspiro[3.5]nonane-2-carbonyl]-8-oxa-2,5-diazaspiro[3.5]nonan-6-one]",6.66
15,"CS(=O)(=O)c1ccc(CN2CC3(C2)CN(C(=O)N2CC4(COC(=O)N4)C2)C3)cc1 [Example 164, 2-[6-(4-mesylbenzyl)-2,6-diazaspiro[3.3]heptane-2-carbonyl]-7-oxa-2,5-diazaspiro[3.4]octan-6-one]",7.28

# These reach a higher pIC50. Values come first.
row,pIC50,SMILES
1,7.75,"O=C1CCC2(CN(C(=O)N3CC4(CC(Cc5cnn(C(F)(F)F)c5)C4)C3)C2)N1 [Example 216, 2-[6-[[1-(trifluoromethyl)pyrazol-4-yl]methyl]-2-azaspiro[3.3]heptane-2-carbonyl]-2,5-diazaspiro[3.4]octan-6-one]"
2,8.07,"O=C1COCC2(CN(C(=O)N3CC4(CC[C@@H](Cc5ccc(S(=O)(=O)C(F)(F)F)cc5)C4)C3)C2)N1 [Example 234, 2-[(6S)-6-[[4-(trifluoromethylsulfonyl)phenyl]methyl]-2-azaspiro[3.4]octane-2-carbonyl]-8-oxa-2,5-diazaspiro[3.5]nonan-6-one]"
3,8.29,"O=C1NC2(CO1)CN(C(=O)N1CC3(CCN(Cc4ccc(C(F)(F)F)nc4)C3)C1)C2 [Example 156, 2-[7-[[6-(trifluoromethyl)-3-pyridyl]methyl]-2,7-diazaspiro[3.4]octane-2-carbonyl]-7-oxa-2,5-diazaspiro[3.4]octan-6-one]"
4,8.36,"O=C1NC2(CO1)CN(C(=O)N1CC3(C1)CN(S(=O)(=O)NCC1(C(F)(F)F)CC1)C3)C2 [Example 197, 6-(6-oxo-7-oxa-2,5-diazaspiro[3.4]octane-2-carbonyl)-N-[[1-(trifluoromethyl)cyclopro-pyl]methyl]-2,6-diazaspiro[3.3]heptane-2-sulfonamide]"
5,8.42,"O=C1NC2(CO1)CN(C(=O)N1CC3(CC(c4ccc(C(F)(F)F)nc4)C3)C1)C2 [Example 79, 2-[6-[6-(trifluoromethyl)-3-pyridyl]-2-azaspiro[3.3]heptane-2-carbonyl]-7-oxa-2,5-diazaspiro[3.4]octan-6-one]"
6,8.56,"CS(=O)(=O)c1cccc(CN2CCC3(CC2)CN(C(=O)N2CC4(CCC(=O)N4)C2)C3)c1 [Example 163, 2-[7-(3-mesylbenzyl)-2,7-diazaspiro[3.5]nonane-2-carbonyl]-2,5-diazaspiro[3.4]octan-6-one]"
7,8.67,"O=C1COCC2(CN(C(=O)N3CC4(CC[C@@H](Cc5cccc(S(=O)(=O)C(F)(F)F)c5)C4)C3)C2)N1 [Example 236, 2-[(6S)-6-[[3-(trifluoromethylsulfonyl)phenyl]methyl]-2-azaspiro[3.4]octane-2-carobnyl]-8-oxa-2,5-diazaspiro[3.5]nonan-6-one]"
8,8.78,"O=C1CCC2(CN(C(=O)N3CC4(CC(Cc5ccc(OC(F)(F)F)nc5)C4)C3)C2)N1 [Example 179, 2-[6-[[6-(trifluoromethoxy)-3-pyridyl]methyl]-2-azaspiro[3.3]heptane-2-carbonyl]-2,5-diazaspiro[3.4]octan-6-one]"
9,8.84,"O=C1NC2(CO1)CN(C(=O)N1CC3(CC(Cc4ccc(C(F)(F)F)nn4)C3)C1)C2 [Example 36, 2-[6-[[6-(trifluoromethyl)pyrida-zin-3-yl]methyl]-2-azaspiro[3.3]heptane-2-carbonyl]-7-oxa-2,5-diazaspiro[3.4]octan-6-one]"
10,8.88,"O=C1CCC2(CN(C(=O)N3CC4(CC[C@H](Cc5ccc(S(=O)(=O)C(F)(F)F)cc5)C4)C3)C2)N1 [Example 221, 2-[(6R)-6-[[4-(trifluoromethylsulfonyl)phenyl]methyl]-2-azaspiro[3.4]octane-2-carbonyl]-2,5-diazaspiro[3.4]octan-6-one]"
11,9.01,"O=C1NC2(CO1)CN(C(=O)N1CC3(CCC(OCC4(C(F)(F)F)CC4)CC3)C1)C2 [Example 62, 2-[7-[[1-(trifluoromethyl)cyclopro-pyl]methoxy]-2-azaspiro[3.5]nonane-2-carbonyl]-7-oxa-2,5-diazaspiro[3.4]octan-6-one]"
12,9.11,"N#Cc1cc(CC2CC3(C2)CN(C(=O)N2CC4(CCC(=O)N4)C2)C3)cc(C(F)(F)F)c1 [Example 217, 3-[[2-(6-oxo-2,5-diazaspiro[3.4]octane-2-carbonyl)-2-azaspiro[3.3]heptan-6-yl]methyl]-5-(trifluoromethyl)benzoni-trile]"
13,9.28,Cn1ncc(CC2CC3(C2)CN(C(=O)N2CC4(CCC(=O)N4)C2)C3)c1C(F)(F)F [Example 165]
14,9.41,"N#Cc1cc(C(F)(F)F)ncc1CC1CC2(C1)CN(C(=O)N1CC3(COC(=O)N3)C1)C2 [Example 211, 5-[[2-(6-oxo-7-oxa-2,5-diazaspiro[3.4]octane-2-carbonyl)-2-azaspiro[3.3]heptan-6-yl]methyl]-2-(trifluoromethyl)pyridine-4-carbonitrile]"
15,9.59,"N=[S@@](=O)(c1ccc(CC2CC3(C2)CN(C(=O)N2CC4(COC(=O)N4)C2)C3)cc1)C(F)(F)F [Example 358, 2-[6-[4-(trifluoromethylsulfoni-midoyl)benzyl]-2-azaspiro[3.3]heptane-2-carbonyl]-7-oxa-2,5-diazaspiro[3.4]octan-6-one]"
16,9.74,"O=C1NC2(CO1)CN(C(=O)N1CC3(CCC(Cc4ncc(F)cc4F)CC3)C1)C2 [Example 108, 2-[7-[(3,5-difluoro-2-pyridyl)methyl]-2-azaspiro[3.5]nonane-2-carbonyl]-7-oxa-2,5-diazaspiro[3.4]octan-6-one]"
